Measured values as given in US6914045B2, “Glycopeptide antibiotics” (Wyeth Holdings Corporation, priority 2001, dated 2005).
In brackets after ≈: the same amount, converted by molar mass.

Assays:
Assay in all cases: in vitro antibacterial evaluation, MIC by broth dilution
Assay type in all cases: cell-based
Streptococcus sp. = conditions: broth dilution, 18 hours at 35° C.; for MIC Streptococcus pneumoniae (ATCC 6301): strain ATCC 6301; for MIC Streptococcus pneumoniae (GC 1894): strain GC 1894; for MIC Streptococcus pyogenes (GC 4563): strain GC 4563; for MIC Streptococcus agalactiae (GC 4564): strain GC 4564; for MIC Streptococcus pneumoniae (GC 4565): strain GC 4565
Method: (§1) Methods for in vitro Antibacterial Evaluation (Table 1)
(§2) The minimum inhibitory concentration (MIC), the lowest concentration of the antibiotic which inhibits growth of the test organism, is determined by the broth dilution method using Muller-Hinton II […] (Baltimore Biological Laboratories) following the recommendations of the National Committee for Clinical Laboratory Standards [Methods for dilution antimicrobial susceptibility tests for bacteria that grow aerobically, approved standard M7-A2, National Committee for Clinical Laboratory Standards, Villanova, Pa.].
(§3) An inoculum level of 5×10^5 CFU/mL, and a range of antibiotic concentrations (64-0.06 μg/mL) is used. […] The test organisms include a spectrum of Gram-positive bacteria comprised of Staphylococcus sp., Streptococcus sp. and Enterococcus sp. These organisms include recent clinical isolates that are resistant to methicillin, penicillin and/or vancomycin.

Staphylococcus sp. = conditions: broth dilution, 18 hours at 35° C.; for MIC Staphylococcus aureus (ATCC 29213): strain ATCC 29213; for MIC Staphylococcus aureus (GC 1131): strain GC 1131; for MIC Staphylococcus aureus (GC 3051): strain GC 3051; for MIC Staphylococcus aureus (GC 3053): strain GC 3053; for MIC Staphylococcus aureus (GC 4541): strain GC 4541; for MIC Staphylococcus aureus (GC 4542): strain GC 4542; for MIC Staphylococcus aureus-SMITH (GC 4543): strain GC 4543; for MIC Staphylococcus aureus (GC 4544): strain GC 4544; for MIC Staphylococcus aureus (GC 4545): strain GC 4545; for MIC Staphylococcus haemolyticus (GC 4546): strain GC 4546; for MIC Coagulase Negative Staphylococcus (GC 4547): strain GC 4547; for MIC Coagulase Negative Staphylococcus (GC 4548): strain GC 4548; for MIC Coagulase Negative Staphylococcus (GC 4549): strain GC 4549; for MIC Coagulase Negative Staphylococcus (GC 4551): strain GC 4551; for MIC Coagulase Negative Staphylococcus (GC 6257): strain GC 6257
Method: as §1, §2, §3

Enterococcus sp. = conditions: broth dilution, 18 hours at 35° C.; for MIC Enterococcus faecalis (ATCC 29212): strain ATCC 29212; for MIC Enterococcus faecalis (GC 2242): strain GC 2242; for MIC Enterococcus faecium (GC 2243): strain GC 2243; for MIC Enterococcus faecalis (GC 2691): strain GC 2691; for MIC Enterococcus faecalis (GC 3059): strain GC 3059; for MIC Enterococcus faecalis (GC 4552): strain GC 4552; for MIC Enterococcus faecalis (GC 4553): strain GC 4553; for MIC Enterococcus faecalis (GC 4554): strain GC 4554; for MIC Enterococcus faecium (GC 4556): strain GC 4556; for MIC Enterococcus faecium (GC 4557): strain GC 4557; for MIC Enterococcus avium (GC 4558): strain GC 4558; for MIC Enterococcus faecalis (GC 6189): strain GC 6189
Method: as §1, §2, §3

Escherichia coli = conditions: broth dilution, 18 hours at 35° C.; for MIC Escherichia coli (ATCC 25922): strain ATCC 25922; for MIC Escherichia coli (GC 4559): strain GC 4559; for MIC Escherichia coli (GC 4560): strain GC 4560
Summary of the method: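 MIC is the lowest antibiotic concentration (tested 64-0.06 μg/mL) preventing growth of a 5×10^5 CFU/mL inoculum. Determined by broth dilution in Mueller-Hinton II medium following NCCLS standard M7-A2.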

| MIC Streptococcus pneumoniae (ATCC 6301) (Streptococcus sp.) [µg/mL] | MIC Streptococcus pneumoniae (GC 1894) (Streptococcus sp.) [µg/mL] | MIC Streptococcus pyogenes (GC 4563) (Streptococcus sp.) [µg/mL] | MIC Streptococcus agalactiae (GC 4564) (Streptococcus sp.) [µg/mL] | MIC Streptococcus pneumoniae (GC 4565) (Streptococcus sp.) [µg/mL] | MIC Staphylococcus aureus (ATCC 29213) (Staphylococcus sp.) [µg/mL] | MIC Staphylococcus aureus (GC 1131) (Staphylococcus sp.) [µg/mL] | MIC Staphylococcus aureus (GC 3051) (Staphylococcus sp.) [µg/mL] | MIC Staphylococcus aureus (GC 3053) (Staphylococcus sp.) [µg/mL] | MIC Staphylococcus aureus (GC 4541) (Staphylococcus sp.) [µg/mL] | MIC Staphylococcus aureus (GC 4542) (Staphylococcus sp.) [µg/mL] | MIC Staphylococcus aureus-SMITH (GC 4543) (Staphylococcus sp.) [µg/mL] | MIC Staphylococcus aureus (GC 4544) (Staphylococcus sp.) [µg/mL] | MIC Staphylococcus aureus (GC 4545) (Staphylococcus sp.) [µg/mL] | MIC Coagulase Negative Staphylococcus (GC 4547) (Staphylococcus sp.) [µg/mL] | MIC Coagulase Negative Staphylococcus (GC 4548) (Staphylococcus sp.) [µg/mL] | MIC Coagulase Negative Staphylococcus (GC 4549) (Staphylococcus sp.) [µg/mL] | MIC Coagulase Negative Staphylococcus (GC 4551) (Staphylococcus sp.) [µg/mL] | MIC Coagulase Negative Staphylococcus (GC 6257) (Staphylococcus sp.) [µg/mL] | Structure (SMILES) | MIC Staphylococcus haemolyticus (GC 4546) (Staphylococcus sp.) [µg/mL] | other results |
| --- | --- | --- | --- | --- | --- | --- | --- | --- | --- | --- | --- | --- | --- | --- | --- | --- | --- | --- | --- | --- | --- |
| 4 (≈ 3.89 µM) | 2 (≈ 1.95 µM) | 8 (≈ 7.78 µM) | 16 (≈ 15.6 µM) | 4 (≈ 3.89 µM) | 64 (≈ 62.3 µM) | 64 (≈ 62.3 µM) | 64 (≈ 62.3 µM) | 64 (≈ 62.3 µM) | 64 (≈ 62.3 µM) | 64 (≈ 62.3 µM) | 64 (≈ 62.3 µM) | 64 (≈ 62.3 µM) | 64 (≈ 62.3 µM) | 64 (≈ 62.3 µM) | 64 (≈ 62.3 µM) | 32 (≈ 31.1 µM) | 64 (≈ 62.3 µM) | 32 (≈ 31.1 µM) | CC(=O)Nc1cc(CC2NC(=O)C(C(C)c3ccccc3)NC(=O)CNC(=O)C(CO)NC(=O)C(C(O)C3CNC(=N)N3C3OC(CO)C(O)C(O)C3O)NC(=O)C(C(O)C3CNC(=N)N3)NC2=O)ccc1O (stereo not drawn) [Example 13, Cyclo[-glycyl-β-methylphenylalanyl-3-acetamidotyrosyl-3-(2-iminoimidazolidin-4-yl)seryl-3-(3-hexopyranosyl-2-iminoimidazolodin-4-yl)serylseryl]] | 64 (≈ 62.3 µM) | MIC Enterococcus faecalis (ATCC 29212) (Enterococcus sp.): >64 µg/mL; MIC Enterococcus faecalis (GC 2242) (Enterococcus sp.): 64 µg/mL (≈ 62.3 µM); MIC Enterococcus faecium (GC 2243) (Enterococcus sp.): 64 µg/mL (≈ 62.3 µM); MIC Enterococcus faecalis (GC 2691) (Enterococcus sp.): >64 µg/mL; MIC Enterococcus faecalis (GC 3059) (Enterococcus sp.): >64 µg/mL; MIC Enterococcus faecalis (GC 4552) (Enterococcus sp.): >64 µg/mL; MIC Enterococcus faecalis (GC 4553) (Enterococcus sp.): 64 µg/mL (≈ 62.3 µM); MIC Enterococcus faecalis (GC 4554) (Enterococcus sp.): >64 µg/mL; MIC Enterococcus faecium (GC 4556) (Enterococcus sp.): 64 µg/mL (≈ 62.3 µM); MIC Enterococcus faecium (GC 4557) (Enterococcus sp.): 64 µg/mL (≈ 62.3 µM); MIC Enterococcus avium (GC 4558) (Enterococcus sp.): 64 µg/mL (≈ 62.3 µM); MIC Enterococcus faecalis (GC 6189) (Enterococcus sp.): >64 µg/mL; MIC Escherichia coli (ATCC 25922) (Escherichia coli): >64 µg/mL; MIC Escherichia coli (GC 4559) (Escherichia coli): >64 µg/mL; MIC Escherichia coli (GC 4560) (Escherichia coli): 32 µg/mL (≈ 31.1 µM) |
| >128 | 128 (≈ 123 µM) | >128 | 128 (≈ 123 µM) | 64 (≈ 61.4 µM) | >128 | >128 | >128 | >128 | >128 | >128 | >128 | >128 | >128 | >128 | >128 | >128 | >128 | >128 | CCC(=O)Nc1cc(CC2NC(=O)C(C(C)c3ccccc3)NC(=O)CNC(=O)C(CO)NC(=O)C(C(O)C3CNC(=N)N3C3OC(CO)C(O)C(O)C3O)NC(=O)C(C(O)C3CNC(=N)N3)NC2=O)ccc1O (stereo not drawn) [Example 14, Cyclo[glycyl-β-methylphenylalanyl-3-(propanamido)tyrosyl-3-(2-iminoimidazolidin-4-yl)seryl-3-(3-hexopyranosyl-2-iminoimidazolidin-4-yl)serylseryl]] | >128 | MIC Enterococcus faecalis (ATCC 29212) (Enterococcus sp.): >128 µg/mL; MIC Enterococcus faecalis (GC 2242) (Enterococcus sp.): >128 µg/mL; MIC Enterococcus faecium (GC 2243) (Enterococcus sp.): >128 µg/mL; MIC Enterococcus faecalis (GC 2691) (Enterococcus sp.): >128 µg/mL; MIC Enterococcus faecalis (GC 3059) (Enterococcus sp.): >128 µg/mL; MIC Enterococcus faecalis (GC 4552) (Enterococcus sp.): >128 µg/mL; MIC Enterococcus faecalis (GC 4553) (Enterococcus sp.): >128 µg/mL; MIC Enterococcus faecalis (GC 4554) (Enterococcus sp.): >128 µg/mL; MIC Enterococcus faecium (GC 4556) (Enterococcus sp.): >128 µg/mL; MIC Enterococcus faecium (GC 4557) (Enterococcus sp.): >128 µg/mL; MIC Enterococcus avium (GC 4558) (Enterococcus sp.): 128 µg/mL (≈ 123 µM); MIC Enterococcus faecalis (GC 6189) (Enterococcus sp.): >128 µg/mL; MIC Escherichia coli (ATCC 25922) (Escherichia coli): >128 µg/mL; MIC Escherichia coli (GC 4559) (Escherichia coli): >128 µg/mL; MIC Escherichia coli (GC 4560) (Escherichia coli): 128 µg/mL (≈ 123 µM) |
| 128 (≈ 114 µM) | 64 (≈ 57.1 µM) | >128 | >128 | 128 (≈ 114 µM) | >128 | >128 | >128 | >128 | >128 | >128 | >128 | >128 | >128 | >128 | >128 | 128 (≈ 114 µM) | >128 | >128 | Cc1ccc(OC(=O)Nc2cc(CC3NC(=O)C(C(C)c4ccccc4)NC(=O)CNC(=O)C(CO)NC(=O)C(C(O)C4CNC(=N)N4C4OC(CO)C(O)C(O)C4O)NC(=O)C(C(O)C4CNC(=N)N4)NC3=O)ccc2O)cc1 (stereo not drawn) [Example 19, Cyclo[glycyl-β-methylphenylalanyl-3-[[(4-methylphenoxy)carbonyl]amino]tyrosyl-3-(2-iminoimidazolidin-4-yl)seryl-3-(3-hexopyranosyl-2-iminoimidazolidin-4-yl)serylseryl]] | >128 | MIC Enterococcus faecalis (ATCC 29212) (Enterococcus sp.): >128 µg/mL; MIC Enterococcus faecalis (GC 2242) (Enterococcus sp.): >128 µg/mL; MIC Enterococcus faecium (GC 2243) (Enterococcus sp.): >128 µg/mL; MIC Enterococcus faecalis (GC 2691) (Enterococcus sp.): >128 µg/mL; MIC Enterococcus faecalis (GC 3059) (Enterococcus sp.): >128 µg/mL; MIC Enterococcus faecalis (GC 4552) (Enterococcus sp.): >128 µg/mL; MIC Enterococcus faecalis (GC 4553) (Enterococcus sp.): 128 µg/mL (≈ 114 µM); MIC Enterococcus faecalis (GC 4554) (Enterococcus sp.): >128 µg/mL; MIC Enterococcus faecium (GC 4556) (Enterococcus sp.): >128 µg/mL; MIC Enterococcus faecium (GC 4557) (Enterococcus sp.): 128 µg/mL (≈ 114 µM); MIC Enterococcus avium (GC 4558) (Enterococcus sp.): 128 µg/mL (≈ 114 µM); MIC Enterococcus faecalis (GC 6189) (Enterococcus sp.): >128 µg/mL; MIC Escherichia coli (ATCC 25922) (Escherichia coli): 128 µg/mL (≈ 114 µM); MIC Escherichia coli (GC 4559) (Escherichia coli): 128 µg/mL (≈ 114 µM); MIC Escherichia coli (GC 4560) (Escherichia coli): 128 µg/mL (≈ 114 µM) |
